Molecular target: T1, human mAChR M4 (Homo sapiens, UniProt P08173)
T1 construct: expressed in transfected cells
T1 sequence (P08173 1-479): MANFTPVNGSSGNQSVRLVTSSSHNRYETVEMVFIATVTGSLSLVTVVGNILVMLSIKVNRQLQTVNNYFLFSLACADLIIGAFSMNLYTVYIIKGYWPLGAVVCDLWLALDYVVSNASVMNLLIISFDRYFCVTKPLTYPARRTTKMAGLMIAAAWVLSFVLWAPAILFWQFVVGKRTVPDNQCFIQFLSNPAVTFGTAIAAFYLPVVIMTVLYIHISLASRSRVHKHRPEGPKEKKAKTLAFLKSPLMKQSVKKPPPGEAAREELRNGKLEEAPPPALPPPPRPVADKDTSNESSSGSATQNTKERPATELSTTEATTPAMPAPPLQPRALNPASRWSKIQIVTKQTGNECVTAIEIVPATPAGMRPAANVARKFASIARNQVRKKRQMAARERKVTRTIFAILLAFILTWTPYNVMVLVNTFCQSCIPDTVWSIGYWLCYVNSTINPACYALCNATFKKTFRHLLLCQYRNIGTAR
Experiment: mAChR M4 cell-based functional assay (calcium mobilization, CHO-K1 hM4-Gqi5 cells)
Details: for Emax at 30 µM: CHO-K1, % ACh maximum at 30 μM, human M4; for EC50: positive allosteric modulator activity, increase in the EC20 acetylcholine response, CHO-K1 hM4-Gqi5 cells, read-out: Human M4 EC50
Protocol: Human and rat M4 cDNAs, along with the chimeric G protein Gqi5, were transfected into Chinese hamster ovary (CHO-K1) cells purchased from the American Type Culture Collection using Lipofectamine2000. hM4-Gqi5 cells were grown in Ham's F-12 medium containing 10% heat-inactivated fetal bovine serum (FBS), 20 mM HEPES, 50 μg/mL G418 sulfate, and 500 μg/mL Hygromycin B. rM4-Ggi5 cells were grown in DiVEM containing 10% heat-inactivated FBS, 20 mM THEPES, 400 μμg/mL G418 sulfate, and 500 μμg/mL Hygromycin B.
For high throughput measurement of agonist-evoked increases in intracellular calcium, CHO-K1 cells stably expressing muscarinic receptors were plated in growth medium lacking G418 and hygromycin at 15,000 cells/20 μL/well in Greiner 384-well black-walled, tissue culture (TC)-treated, clear-bottom plates (VWR). Cells were incubated overnight at 37° C. and 5% CO2. The next day, cells were washed using an ELX 405 (BioTek) with assay buffer; the final volume was then aspirated to 20 μL. Next, 20 μL of a […] of Fluo-4/acetoxymethyl ester (Invitrogen, Carlsbad, CA), prepared as a 2.3 mM stock in DMSO and mixed in a 1:1 ratio with 10% (w/v) Pluronic F-127 and diluted in assay buffer, was added to the wells and the cell plates were incubated for 50 min at 37° C. and 5% C02. Dye was removed by washing with the ELX 405 and the final volume was aspirated to 20 μL. Compound master plates were formatted in an 11 point concentration-response curve (CRC) format (1:3 dilutions) in 100% DMSO with a starting concentration of 10 mM using a BRAVO liquid handler (Agilent). Test compound CRCs were then transferred to daughter plates (240 nL) using the Echo acoustic plate reformatter (Labcyte, Sunnyvale, CA) and then diluted into assay buffer (40 μL) to a 2× stock using a Thermo Fisher Combi (Thermo Fisher Scientific, Waltham, MA).
Calcium flux was measured using the Functional Drug Screening System (FDSS) 6000 or 7000 (Hamamatsu Corporation, Tokyo, Japan) as an increase in the fluorescent static ratio. Compounds were applied to cells (20 μL, 2×) using the automated system of the FDSS at 2-4 seconds into the protocol and the data were collected at 1 Hz. At 144 seconds, 10 μL of an EC20 concentration of the muscarinic receptor agonist acetylcholine was added (5×), followed by the addition of 12 μL of an EC80 concentration of acetylcholine at the 230 second time point (5×). Agonist activity was analyzed as a concentration-dependent increase in calcium mobilization upon compound addition. Positive allosteric modulator activity was analyzed as a concentration-dependent increase in the EC20 acetylcholine response. Antagonist activity was analyzed as a concentration-dependent decrease in the EC80 acetylcholine response. Concentration-response curves were generated using a four-parameter logistical equation in XLFit curve fitting software (IDBS, Bridgewater, NJ) for Excel (Microsoft, Redmond, WA) or Prism (GraphPad Software, Inc., San Diego, CA).
Compounds were synthesized as described above. Activity (EC50 and Emax) was determined in the mAChR M4 cell-based functional assay as described above and the data are shown in Table 2. The compound number corresponds to the compound numbers used in Table 1.

| Structure (SMILES) | Emax at 30 µM [%] | EC50 [nM] |
| --- | --- | --- |
| Cc1c(C#N)nnc(N2CCc3ncc(-c4ccc(N5CC6CC5CO6)nc4)cc3C2)c1C (stereo not shown) [Example 333, 6-(3-(6-(2-oxa-5-azabicyclo[2.2.1]heptan-5-yl)pyridin-3-yl)-7,8-dihydro-1,6-naphthyridin-6(5H)-yl)-4,5-dimethylpyridazine-3-carbonitrile] | 72 | 817 |
| Cc1nc(N2CCCC2)c(C)c(N2CCc3ncc(-c4ccc(F)nc4)cc3C2)n1 [compound 223, 6-(2,5-dimethyl-6-(pyrrolidin-1-yl)pyrimidin-4-yl)-3-(6-fluoropyridin-3-yl)-5,6,7,8-tetrahydro-1,6-naphthyridine] | 56 | 3290 |
| Cc1cc(C#N)cnc1N1CCc2ncc(OCCOc3ccccc3)cc2C1 [Example 427, 5-methyl-6-(3-(2-phenoxyethoxy)-7,8-dihydro-1,6-naphthyridin-6(5H)-yl)nicotinonitrile] | 63 | 2670 |
| Cc1cc(C(=O)N2CCc3ccncc3C2)nnc1N1CCc2ncc(C(F)(F)F)cc2C1 [Example 499, (3,4-dihydro-2,7-naphthyridin-2(1H)-yl)(5-methyl-6-(3-(trifluoromethyl)-7,8-dihydro-1,6-naphthyridin-6(5H)-yl)pyridazin-3-yl)methanone] | 88 | 2670 |
| Cc1cc(C(=O)NCc2ccc3ncccc3c2)cnc1N1CCc2ncccc2C1 [compound 68, 6-(7,8-dihydro-5H-1,6-naphthyridin-6-yl)-5-methyl-N-(6-quinolylmethyl)pyridine-3-carboxamide] | 43 | 3140 |
| Cc1cc(C(=O)NCC2CCCCO2)cnc1N1CCc2ncccc2C1 (stereo not shown) [compound 161, 6-(7,8-dihydro-5H-1,6-naphthyridin-6-yl)-5-methyl-N-(tetrahydropyran-2-ylmethyl)pyridine-3-carboxamide] | 58 | ≥ 10000 |
| Cc1nc(Cl)nc(N2CCc3ncc(C(F)(F)F)cc3C2)c1C [compound 253, 6-(2-chloro-5,6-dimethylpyrimidin-4-yl)-3-(trifluoromethyl)-5,6,7,8-tetrahydro-1,6-naphthyridine] | 94 | 200 |
| Cc1cc(C#N)cnc1N1CCc2ncc(-c3cnn(C)c3)cc2C1 [compound 104, 5-methyl-6-[3-(1-methylpyrazol-4-yl)-7,8-dihydro-5H-1,6-naphthyridin-6-yl]pyridine-3-carbonitrile] | 99 | 216 |
| Cc1cc(C(=O)N2CC3(C2)CC(F)(F)C3)nnc1N1CCc2ncc(N3CCO[C@H](C)C3)cc2C1 [Example 574, (R)-(6,6-difluoro-2-azaspiro[3.3]heptan-2-yl)(5-methyl-6-(3-(2-methylmorpholino)-7,8-dihydro-1,6-naphthyridin-6(5H)-yl)pyridazin-3-yl)methanone] | 81 | 193 |
| Cc1ncc(-c2cnc3c(c2)CN(c2ncc(C#N)cc2C)CC3)s1 [compound 185, 5-methyl-6-[3-(2-methylthiazol-5-yl)-7,8-dihydro-5H-1,6-naphthyridin-6-yl]pyridine-3-carbonitrile] | 101 | 211 |
| Cc1nc(Cl)c(C)c(N2Cc3cc([N+](=O)[O-])cnc3C(C)C2)n1 (stereo not shown) [compound 222, 6-(6-chloro-2,5-dimethylpyrimidin-4-yl)-8-methyl-3-nitro-5,6,7,8-tetrahydro-1,6-naphthyridine] | 91 | 333 |
| Cc1cc(C#N)cnc1N1CCc2ncc(NCC3CCCO3)cc2C1 (stereo not shown) [Example 9] | 76 | 785 |
| CNC(=O)c1ccc(CNC(=O)c2cnc(N3CCc4ncccc4C3)c(C)c2)cc1 [compound 149, 6-(7,8-dihydro-5H-1,6-naphthyridin-6-yl)-5-methyl-N-[[4-(methylcarbamoyl)phenyl]methyl] pyridine-3-carboxamide] | 56 | ≥ 10000 |
| Cc1cc(C#N)cnc1N1CCc2ncc(CC(F)(F)F)cc2C1 [Example 423, 5-methyl-6-(3-(2,2,2-trifluoroethyl)-7,8-dihydro-1,6-naphthyridin-6(5H)-yl)nicotinonitrile] | 76 | 229 |
| Cc1cc(C#N)cnc1N1CCc2ncc(-n3nccc3C)cc2C1 [Example 345, 5-methyl-6-(3-(5-methyl-1H-pyrazol-1-yl)-7,8-dihydro-1,6-naphthyridin-6(5H)-yl)nicotinonitrile] | 86 | 341 |
| Cc1cc(C#N)nnc1N1CCc2ncc(N3CC(C)Cn4nccc43)cc2C1 (stereo not shown) [Example 381, 5-methyl-6-(3-(6-methyl-6,7-dihydropyrazolo[1,5-a]pyrimidin-4(5H)-yl)-7,8-dihydro-1,6-naphthyridin-6(5H)-yl)pyridazine-3-carbonitrile] | 98 | 384 |
| Cc1cc(C#N)cnc1N1CCc2ncc(N3CCOC(c4cccnc4)C3)cc2C1 (stereo not shown) [Example 389, 5-methyl-6-(3-(2-(pyridin-3-yl)morpholino)-7,8-dihydro-1,6-naphthyridin-6(5H)-yl)nicotinonitrile] | 92 | 942 |
| Cc1cc(C(=O)N2CC3(COC3)C2)nnc1N1CCc2ncc(-n3cccn3)cc2C1 [Example 571, (6-(3-(1H-pyrazol-1-yl)-7,8-dihydro-1,6-naphthyridin-6(5H)-yl)-5-methylpyridazin-3-yl)(2-oxa-6-azaspiro[3.3]heptan-6-yl)methanone] | 85 | 213 |
| Cc1cc(C(=O)NCC2CCOCC2)cnc1N1CCc2ncccc2C1 [compound 160, 6-(7,8-dihydro-5H-1,6-naphthyridin-6-yl)-5-methyl-N-(tetrahydropyran-4-ylmethyl)pyridine-3-carboxamide] | 51 | ≥ 10000 |
| Cc1cc(C#N)c(-c2cccn2C)nc1N1CCc2ncc(C(F)(F)F)cc2C1 [Example 372, 5-methyl-2-(1-methyl-1H-pyrrol-2-yl)-6-(3-(trifluoromethyl)-7,8-dihydro-1,6-naphthyridin-6(5H)-yl)nicotinonitrile] | 55 | 5800 |
| Cc1c(Cl)nc(C(F)(F)F)nc1N1CCc2ncc(C(F)(F)F)cc2C1 [compound 237, 6-(6-chloro-5-methyl-2-(trifluoromethyl)pyrimidin-4-yl)-3-(trifluoromethyl)-5,6,7,8-tetrahydro-1,6-naphthyridine] | 73 | 2960 |
| Cc1cc(C(=O)NCc2ncc(C(F)(F)F)cn2)cnc1N1CCc2ncccc2C1 [compound 145, 6-(7,8-dihydro-5H-1,6-naphthyridin-6-yl)-5-methyl-N-[[5-(trifluoromethyl)pyrimidin-2-yl]methyl]pyridine-3-carboxamide] | 50 | ≥ 10000 |
| Cc1c(C#N)nnc(N2CCc3ncc(Nc4ccccc4C#N)cc3C2)c1C [compound 41, 6-[3-(2-cyanoanilino)-7,8-dihydro-5H-1,6-naphthyridin-6-yl]-4,5-dimethyl-pyridazine-3-carbonitrile] | 46 | 483 |
